Test results taken from patent publication US20230348475A1, “IMIDAZOPYRIDAZINE AND IMIDAZOPYRAZINE COMPOUNDS AS INHIBITORS OF CDK7” (THE TRANSLATIONAL GENOMICS RESEARCH INSTITUTE, priority 2020, published 2023).
Structures can show the parent of a compound that is named as a salt.

Molecular target: CDK7/CycH/MAT1 (Homo sapiens, UniProt P50613)
Assay: Kinase Glo (ADP-Glo) biochemical assay, CDK7
Details: CDK7/CycH/MAT1 40 ng, ATP 1 μM, 60 minutes at RT, luminescence
Protocol: Materials: • Assay Buffer: 50 mM HEPES, 3 mM MgCl2, 3 mM MnCl2, 1 mM DTT, 3 μM Na3VO4, pH 7.5 • Substrate RB • CTF Peptide (ProQinase #: 0040-0000-6) • Enzymes • CDK7/CycH/MAT1 (ProQinase #: 0366-0360-4) • ADP-Glo™ Assay (Promega #: V9101) • ATP: 10 mM • ADP-Glo™ Reagent • Kinase Detection Reagent • 384-well white assay plates
A ten point serial dilution of compound was prepared at 5X concentration in assay buffer with the final assay concentrations starting at 30 μM, 10 μM, 3 μM, 1 μM . . . 0 μM. Enzyme, substrate, and ATP were used at 40 ng, 200 ng (or 400 ng)* and 1 μM, respectively. The assay plate was set up by mixing the components in a total reaction volume of 10 μL per well. The plate was centrifuged gently for 10 seconds and incubated at room temperature (RT) for 60 minutes in the dark. The ADP-Glo Reagent and kinase detection reagent were added and incubated as recommended. The reaction was quantified by measuring luminescence on the Perkin Elmer Envision plate reader.

CDK7/CycH/MAT1, sequence (P50613 whole entry): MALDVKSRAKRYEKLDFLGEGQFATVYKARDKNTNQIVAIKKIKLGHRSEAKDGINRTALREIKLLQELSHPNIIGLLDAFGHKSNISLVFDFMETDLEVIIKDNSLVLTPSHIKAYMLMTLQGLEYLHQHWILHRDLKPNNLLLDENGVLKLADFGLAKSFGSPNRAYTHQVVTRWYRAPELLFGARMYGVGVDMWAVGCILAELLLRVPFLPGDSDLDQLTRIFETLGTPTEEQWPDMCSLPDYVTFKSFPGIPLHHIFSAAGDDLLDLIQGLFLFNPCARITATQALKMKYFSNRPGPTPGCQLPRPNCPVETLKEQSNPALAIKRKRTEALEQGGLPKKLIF
CDK7/CycH/MAT1, sequence (P51946 whole entry partner): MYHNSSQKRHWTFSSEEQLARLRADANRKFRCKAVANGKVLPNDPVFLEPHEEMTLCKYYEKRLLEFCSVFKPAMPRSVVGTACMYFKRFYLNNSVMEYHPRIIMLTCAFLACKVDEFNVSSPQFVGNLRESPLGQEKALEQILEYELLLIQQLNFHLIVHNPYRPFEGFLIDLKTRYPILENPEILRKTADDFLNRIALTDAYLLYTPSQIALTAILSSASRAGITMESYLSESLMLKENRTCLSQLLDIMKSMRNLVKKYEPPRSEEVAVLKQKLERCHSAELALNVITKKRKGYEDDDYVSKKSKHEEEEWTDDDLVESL
CDK7/CycH/MAT1, sequence (P51948 whole entry partner): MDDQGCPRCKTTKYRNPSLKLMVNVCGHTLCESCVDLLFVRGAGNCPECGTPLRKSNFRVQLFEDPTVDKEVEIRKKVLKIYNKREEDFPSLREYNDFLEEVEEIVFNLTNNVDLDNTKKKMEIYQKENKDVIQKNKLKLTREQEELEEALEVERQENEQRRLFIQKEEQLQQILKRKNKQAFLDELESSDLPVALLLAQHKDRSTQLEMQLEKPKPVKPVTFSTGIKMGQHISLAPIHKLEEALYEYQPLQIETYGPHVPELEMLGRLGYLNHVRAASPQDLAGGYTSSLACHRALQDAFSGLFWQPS

Row | Compound | IC50 [nM]
1 | CCOc1ccccc1CNc1cc(SC2CCNCC2)nn2c(C(C)C)cnc12 [Compound 65, N-(2-ethoxybenzyl)-3-isopropyl-6-(piperidin-4-ylthio)imidazo[1,2-b]pyridazin-8-amine hydrochloride] | < 100
2 | CN1CC[C@@H](Oc2cc(Nc3cccc(F)c3)c3ncc(C4CC4)n3n2)C1 [Compound 3, (R)-3-cyclopropyl-N-(3-fluorophenyl)-6-((1-methylpyrrolidin-3-yl)oxy)imidazo[1,2-b]pyridazin-8-amine] | 100 to 1000
3 | CC(C)c1cnc2c(NCc3ccccc3OC(F)(F)F)cc(OC[C@@H]3CNCCO3)nn12 [Compound 49, (S)-3-isopropyl-6-(morpholin-2-ylmethoxy)-N-(2-(trifluoromethoxy)benzyl)imidazo[1,2-b]pyridazin-8-amine hydrochloride] | 100 to 1000
4 | COc1ccccc1CNc1cc(SC2CCNCC2(F)F)nn2c(C(C)C)cnc12 (stereo not drawn) [Compound 75, 6-((3,3-difluoropiperidin-4-yl)thio)-3-isopropyl-N-(2-methoxybenzyl)imidazo[1,2-b]pyridazin-8-amine hydrochloride] | 100 to 1000
5 | CC(C)c1cnc2c(Nc3c(F)cccc3F)cc(SC3CCCNC3)nn12 (stereo not drawn) [Compound 59, N-(2,6-difluorophenyl)-3-isopropyl-6-(piperidin-3-ylthio)imidazo[1,2-b]pyridazin-8-amine hydrochloride] | < 100
6 | CN1CCC[C@@H](Oc2cc(Nc3cccc(F)c3)c3ncc(C4CC4)n3n2)C1 [Compound 4, (R)-3-cyclopropyl-N-(3-fluorophenyl)-6-((1-methylpiperidin-3-yl)oxy)imidazo[1,2-b]pyridazin-8-amine] | > 1000
7 | CC(C)c1cnc2c(NCc3ccccc3)cc(NC[C@H]3CCNC[C@@H]3O)nn12 [Compound I-3] | < 100
8 | c1ccc(CNc2nc(SC3CCNCC3)cn3c(C4CC4)cnc23)cc1 [Compound 21, N-benzyl-3-cyclopropyl-6-(piperidin-4-ylthio)imidazo[1,2-α]pyrazin-8-amine formate salt] | 100 to 1000
9 | CC(C)c1cnc2c(NCc3ccccc3OC(F)(F)F)cc(SC3CCNCC3(F)F)nn12 (stereo not drawn) [Compound 76, 6-((3,3-difluoropiperidin-4-yl)thio)-3-)isopropyl-N-(2-(trifluoromethoxy)benzyl)imidazo[1,2-b]pyridazin-8-amine hydrochloride] | 100 to 1000
10 | CC(C)c1cnc2c(NCc3ccc(F)cc3C(F)(F)F)cc(SC3CCCNC3)nn12 (stereo not drawn) [Compound 81, N-(4-fluoro-2-(trifluoromethyl)benzyl)-3-isopropyl-6-(piperidin-3-ylthio)imidazo[1,2-b]pyridazin-8-amine hydrochloride] | 100 to 1000
11 | CC(C)c1cnc2c(Nc3cccc(F)c3)cc(OC3CCNCC3)nn12 [Compound 50, N-(3-fluorophenyl)-3-isopropyl-6-(piperidin-4-yloxy)imidazo[1,2-b]pyridazin-8-amine hydrochloride] | 100 to 1000
12 | FC(F)(F)c1cnc2c(NCc3ccccc3)cc(SC3CCNCC3)nn12 [Compound 78, N-benzyl-6-(piperidin-4-ylthio)-3-(trifluoromethyl)imidazo[1,2-b]pyridazin-8-amine hydrochloride] | < 100
13 | O=C(N1CCC(Sc2cc(NCc3ccccc3)c3ncc(C4CC4)n3n2)CC1)C(F)(F)F [Compound 20, 1-(4-((8-(benzylamino)-3-cyclopropylimidazo[1,2-b]pyridazin-6-yl)thio)piperidin-1-yl)-2,2,2-trifluoroethan-1-one] | > 1000
14 | c1ccc(CNc2cc(O[C@H]3CCNC3)nn3c(C4CC4)cnc23)cc1 [Compound 12, (S)—N-benzyl-3-cyclopropyl-6-(pyrrolidin-3-yloxy)imidazo[1,2-b]pyridazin-8-amine] | 100 to 1000
15 | CC(C)c1cnc2c(NCc3ccccc3OC(F)(F)F)cc(OC3CCNCC3(F)F)nn12 (stereo not drawn) [Compound 71, 6-((3,3-difluoropiperidin-4-yl)oxy)-3-isopropyl-N-(2-(trifluoromethoxy)benzyl)imidazo[1,2-b]pyridazin-8-amine hydrochloride] | > 1000
16 | CC(C)c1cnc2c(NCc3ccccc3)cc(S[C@H]3CCCNC3)nn12 (single isomer, unassigned) [Compound 42, hydrochloride] | < 100
17 | CC(C)Oc1ccccc1CNc1cc(SC2CCNCC2)nn2c(C(C)C)cnc12 [Compound 67, N-(2-isopropoxybenzyl)-3-isopropyl-6-(piperidin-4-ylthio)imidazo[1,2-b]pyridazin-8-amine hydrochloride] | < 100
18 | CC(C)c1cnc2c(N[C@@H](C)c3ccccc3)cc(NC3CCNCC3)nn12 [Compound 29, (S)-3-isopropyl-N8-(1-phenylethyl)-N6-(piperidin-4-yl)imidazo[1,2-b]pyridazine-6,8-diamine hydrochloride] | 100 to 1000

Row | Compound | IC50 [nM]
19 | CC(C)c1cnc2c(NCc3cccc(OC(F)(F)F)c3)cc(SC3CCNCC3)nn12 [Compound 54, 3-isopropyl-6-(piperidin-4-ylthio)-N-(3-(trifluoromethoxy)benzyl)imidazo[1,2-b]pyridazin-8-amine hydrochloride] | < 100
20 | CC(C)c1cnc2c(NCc3c(F)cccc3F)cc(SC3CCNCC3)nn12 [Compound 52, N-(2,6-difluorobenzyl)-3-isopropyl-6-(piperidin-4-ylthio)imidazo[1,2-b]pyridazin-8-amine hydrochloride] | < 100
21 | CN1CCC[C@H](Nc2cc(NCc3ccccc3)c3ncc(C4CC4)n3n2)C1 [Compound 16, (S)-N8-benzyl-3-cyclopropyl-N6-(1-methylpiperidin-3-yl)imidazo[1,2-b]pyridazine-6,8-diamine] | 100 to 1000
22 | c1ccc(CNc2cc(NCCC3CNCCO3)nn3c(C4CC4)cnc23)cc1 (stereo not drawn) [Compound 19, N8-benzyl-3-cyclopropyl-N6-(2-(morpholin-2-yl)ethyl)imidazo[1,2-b]pyridazine-6,8-diamine formate] | 100 to 1000
23 | c1ccc(CNc2cc(O[C@@H]3CCCNC3)nn3c(C4CC4)cnc23)cc1 [Compound 13, (R)—N-benzyl-3-cyclopropyl-6-(piperidin-3-yloxy)imidazo[1,2-b]pyridazin-8-amine] | 100 to 1000
24 | CN1CC[C@H](Oc2cc(NCc3ccccc3)c3ncc(C4CC4)n3n2)C1 [Compound 8, (S)—N-benzyl-3-cyclopropyl-6-((1-methylpyrrolidin-3-yl)oxy)imidazo[1,2-b]pyridazin-8-amine] | 100 to 1000
25 | COc1cc(F)ccc1CNc1cc(SC2CCCNC2)nn2c(C(C)C)cnc12 (stereo not drawn) [Compound 79, N-(4-fluoro-2-methoxybenzyl)-3-isopropyl-6-(piperidin-3-ylthio)imidazo[1,2-b]pyridazin-8-amine formate] | 100 to 1000
26 | CC(C)c1cnc2c(NCc3ccccc3OC(F)(F)F)cc(SC3CCNCC3F)nn12 (stereo not drawn) [Compound 74, 6-((3-fluoropiperidin-4-yl)thio)-3-isopropyl-N-(2-(trifluoromethoxy)benzyl)imidazo[1,2-b]pyridazin-8-amine hydrochloride] | 100 to 1000
27 | COc1cc(F)ccc1CNc1cc(SC2CCNCC2)nn2c(C(C)C)cnc12 [Compound 72, N-(4-fluoro-2-methoxybenzyl)-3-isopropyl-6-(piperidin-4-ylthio)imidazo[1,2-b]pyridazin-8-amine hydrochloride] | < 100
28 | CC(C)c1cnc2c(NCc3ccccc3)cc(NC[C@H]3CCCNC3)nn12 [Compound I-4] | 100 to 1000
29 | COc1ccccc1CNc1cc(OC2CCN(C)CC2)nn2c(C3CC3)cnc12 [Compound I-2] | 100 to 1000
30 | CC(C)c1cnc2c(NCc3cccc(C(F)(F)F)c3)cc(SC3CCNCC3)nn12 [Compound 55, 3-isopropyl-6-(piperidin-4-ylthio)-N-(3-(trifluoromethyl)benzyl)imidazo[1,2-b]pyridazin-8-amine hydrochloride] | < 100
31 | c1ccc(CNc2cc(NCC3CC4(CCNCC4)O3)nn3c(C4CC4)cnc23)cc1 (stereo not drawn) [Compound 17, N6-((1-oxa-7-azaspiro[3.5]nonan-2-yl)methyl)-N8-benzyl-3-cyclopropylimidazo[1,2-b]pyridazine-6,8-diamine] | 100 to 1000
32 | CN1CCC(Oc2cc(Nc3cccc(F)c3)c3ncc(C4CC4)n3n2)CC1 [Compound 2, 3-cyclopropyl-N-(3-fluorophenyl)-6-((1-methylpiperidin-4-yl)oxy)imidazo[1,2-b]pyridazin-8-amine] | 100 to 1000
33 | Fc1cccc(Nc2cc(O[C@H]3CCCNC3)nn3c(C(F)(F)F)cnc23)c1 [Compound 82, (S)-N-(3-fluorophenyl)-6-(piperidin-3-yloxy)-3-(trifluoromethyl)imidazo[1,2-b]pyridazin-8-amine hydrochloride] | < 100
34 | c1ccc(CNc2cc(OC3CCNCC3)nn3c(C4CC4)cnc23)cc1 [Compound 14, N-benzyl-3-cyclopropyl-6-(piperidin-4-yloxy)imidazo[1,2-b]pyridazin-8-amine] | 100 to 1000
35 | COC(=O)[C@@H](N)CSc1cc(NCc2ccccc2)c2ncc(C3CC3)n2n1 [Compound 30, methyl S-(8-(benzylamino)-3-cyclopropylimidazo[1,2-b]pyridazin-6-yl)-L-cysteinate hydrochloride] | 100 to 1000
36 | CN1CC[C@@H](Oc2cc(NCc3ccccc3)c3ncc(C4CC4)n3n2)C1 [Compound 10, (R)—N-benzyl-3-cyclopropyl-6-((1-methylpyrrolidin-3-yl)oxy)imidazo[1,2-b]pyridazin-8-amine] | 100 to 1000
